Patent US9808434B2, “Compound for treating cancer and diabetes” (CITY OF HOPE, priority 2011, dated 2017)

What was measured:
U251 = assay: Glioma ATP viability assay, U251; type: cell-based; settings: Homo sapiens, U-251, 72 h
Method: (§1) Cells of each cell line (U251, U87, PBT-017, PBT018, PBT003 and PBT028) were treated with various concentrations (0˜100 μM) of COH-SR4 for 72 hours. Cell viabilities were determined by ATP viability assays. Data were represented as a ratio to vehicle (DMSO) control, and plotted as mean±SEM (n=12) obtained from 2˜3 experiments (FIG. 34A).
as §1, with “(U87, U251,” for “(U251, U87, PBT-017, PBT018,”, “PVT-017)” for “PBT028)”, “2-3” for “2˜3”, “34B).” for “34A).”
Cells of each cell line were treated with various concentrations (0˜100 μM) of COH-SR4 or various concentrations (0˜1000 μM) of TMZ for 72 hours. Cell viabilities were determined by ATP viability assays. Data were represented as a ratio to untreated cells as control, and plotted as mean±SEM (n=12) obtained from 2˜3 experiments (FIGS. 43A-B).

U251 glioma cells = assay: Intracellular ROS (H2DCFDA+ cells), flow cytometry; type: cell-based; settings: 2 or 10 μM, 24 hours
Method: Cells of U251 glioma cells or pNHA cell lines were treated with COH-SR4 at a concentration of 0 μM, 2 μM or 10 μM for 24 hours before intracellular ROS was assessed by flow cytometry (representative of 3 runs and samples in triplicate). ROS increased in the glioma cells treated with COH-SR4 as indicated by the increased amounts of H2DCFDA+ cells (FIG. 38).

melanoma cells = assay: MTT assay, melanoma cell lines of various mutational status; type: cell-based; settings: 48 h, regardless of mutational status; read-out: IC50 values across melanoma cell lines
Method: Cell density measurements were performed using a hemocytometer to count reproductive cells resistant to staining with trypan blue. Approximately 20,000 cells were plated into each well of 96-well flat-bottomed micro-titer plates. After 12 h or 24 h incubation at 37° C., medium containing either COH-SR4 (ranging 0-200 μM) or elesclomol (ranging 0-20 μM) were added to the cells. After 24 h, 48 h or 96 h incubation, 20 μL of 5 mg/mL MTT were introduced to each well and incubated for 2 h. The plates were centrifuged and medium was decanted. Cells were subsequently dissolved in 100 μl DMSO with gentle shaking for 2 h at room temperature, followed by measurement of OD570 (91).

A2058 = assay: Colony formation assay, A2058; type: cell-based, human
Method: Cell survival was evaluated using a standard colony-forming assay. […] After 7 or 10 days, adherent colonies were fixed, stained with 0.5% methylene blue for 30 min and colonies were counted using the Innotech Alpha Imager HP (91).

[1] = COH-SR4 in mice serum, LC-MS/MS; type: in vivo, mouse; settings: 4 mg/kg b.w. oral, alternate day, 8 weeks; blood within 2 h of final dose
Method: Mice (n=3 each for control and COH-SR4 treatment) were administered either 0.2 mL corn oil or 100 μg COH-SR4/0.2 mL corn oil/mice (4 mg/kg b.w.) by oral gavage on alternate days for 8 weeks. On the last day, the blood was collected within 2 h after final dosage. To 50 μL serum was added 0.5 μL 5 μg/μL 6D-SR4 standard in DMSO and 500 μL ethyl acetate. The samples were vortexed for 1 min and then spun down in a bench-top centrifuge for 2 min. Then 400 μL of the organic layer was collected, evaporated to dryness and redisolved in 500 μL methanol for analysis. After an initial concentration test, 50 μL were taken and diluted to 2 mL with methanol for final analysis. […]
COH-SR4 and 6D-SR4 were separated by HPLC using an Agilent Zorbax 0.5×150 mm C18, 5 μm column with a flow rate of 50 μL/min and a gradient of 65% B to 95% B over 4 min, then 2 min at 95% B and 1 min back to 65% B. Buffer A was 5 mM ammonium formate and buffer B was 5 mM ammonium formate in methanol. The elute from the column was introduced into an Agilent 6410 triple quadrupole tandem mass spectrometer by electrospray ionization (ESI) through a capillary maintained at 4 kV, using 6 L/min nitrogen nebulizing gas at 350° C. and 15 psi, fragmentor voltage=190 V. The following transitions were monitored in positive ion mode: 344>127.1 and 355>130.1 (collision energy=28 V), 344>161.9 and 355>164.9 (C.E.=20 V) for COH-SR4 and 6dSR4. […]

A2058 cells = assay: Mitochondrial membrane depolarization, TMRE; type: cell-based, human; settings: 5 μM
Method: Cells (4×10^5/well in 6-well plates) cultured overnight were pre-incubated with the fluorescent indicator of MMP tetramethylrhodamine ester (TMRE, 200 nM) or DMSO control for 30 min at 37° C. in CO2 incubator. Cells were washed with pre-warmed normal DMEM media, and test compounds were added with fresh media for the indicated times. Cells were then trypsinized, collected, centrifuged for 5 min at 800×g, and washed once in pre-warmed PBS-0.2% BSA. Cells were then resuspended in the same buffer prior to flow cytometric analysis. A total of 30,000 cells were counted per sample and data was analyzed by Cyan ADP flow cytometer with excitation/emission of 488 nm/572 nm (Beckman Coulter, Inc., Brea, Calif.). For measurements of membrane potential in isolated mouse liver mitochondria, the organelles were pre-incubated with 200 nM TMRE in MASSRO buffer (MAS buffer supplemented with 10 mM succinate, 1 μM rotenone, and 1 μM oligomycin) for 20 min at 25° C. The mitochondria were centrifuged for 5 min at 3000×g and resuspended in MASSRO buffer. Mitochondria were then added to MASSRO buffer containing the indicated concentrations of COH-SR4, FCCP or DMSO vehicle control and incubated at room temperature for 15 min. […] TMRE fluorescence was measured with a microplate reader (Tecan Infinite M200 Pro, Tecan Group Ltd., Switzerland) using an excitation emission of 545ex/580em. […]

For `O=C(Nc1cc(Cl)cc(Cl)c1)Nc1cc(Cl)cc(Cl)c1` [COH-SR4, 1,3-bis(3,5-dichlorophenyl) urea], the IC50 (U251; Table 1) was 2100 nM, the IC50 (U251; Table 2) was 2000 nM and the “intracellular ROS (H2DCFDA+ cells)” value (U251 glioma cells) was “ROS increased”. It also gave an IC50 (melanoma cells) of 1200 to 4800 nM, a colony formation (A2058; 5 μM) of 43±7% and a colony formation (A2058; 10 μM, vs untreated control) of 37±4%. The serum concentration [1] was 342 ± 44 ng/mL, the “serum concentration (equivalent)” value [1] was 1000 ± 220 nM and the “mitochondrial membrane depolarization (TMRE fluorescence)” value (A2058 cells) was “induced mitochondrial membrane depolarization in a time-dependent manner”.
